Data taken from publication PMC5338263, “GS-5734 and its parent nucleoside analog inhibit Filo-, Pneumo-, and Paramyxoviruses” (Scientific Reports, 2017).
Like-named read-outs stand apart in the source and are kept apart here.

How the values were obtained:
hMPV Rec. CAN97-83-GFP = assay: microbe, parasite or virus in culture; format: cell-based; settings: human metapneumovirus, Vero
MV, hPIV3, hMPV, and RSV = assay: organism not typed; format: cell-based; settings: read-out: EC50 values (range over viruses)
[1] = system: MV EZ vaccine (Measles virus); assay: in vitro; settings: human
NiV M-1999 = assay: microbe, parasite or virus in culture; format: cell-based, Nipah virus; settings: Henipavirus nipahense, HeLa
EBOV minigenome = assay: cells; format: cell-based, Ebola virus
Pneumo = assay: Potency by virus family (Fig. 2), Pneumo; format: cell-based; settings: read-out: potency class (EC50)
Arena = assay: Potency by virus family (Fig. 2), Arena; format: cell-based; settings: read-out: potency class (EC50)
Corona (coronaviruses) = settings: cited from earlier work
[2] = system: AHFV 200300001 (Alkhurma Hemorrhagic Fever virus); assay: in vitro; settings: human
[3] = Cell viability assay (CellTiter-Glo 2.0), A549; settings: human, uninfected A549 cells

SMILES | EC50 (hMPV Rec. CAN97-83-GFP) | EC90 (hMPV Rec. CAN97-83-GFP) | EC50 (MV, hPIV3, hMPV, and RSV) | EC50 (EBOV Rec. Mayinga-GFP) | selectivity ratio [1] | EC50 (NiV M-1999) | EC50 (EBOV minigenome) | EC50 (EBOV minigenome; Zaire ebolavirus, Huh-7, 48 h) | EC50 (Pneumo) | EC50 (Arena) | EC50 (MARV Rec. Bat371-Gluc) | activity in cell-based antiviral assays (Corona (coronaviruses)) | selectivity ratio [2] | CC50 at 72 h [3]
N#C[C@@]1(c2ccc3c(N)ncnn23)O[C@H](CO)[C@@H](O)[C@H]1O [Nuc] | 730 nM | 1700 nM | 500 to 2000 nM | 1600 nM | 25 |  |  |  |  |  |  |  |  | 
CCC(CC)COC(=O)[C@H](C)N[P@](=O)(OC[C@H]1O[C@@](C#N)(c2ccc3c(N)ncnn23)[C@H](O)[C@@H]1O)Oc1ccccc1 [GS-5734] |  |  |  |  |  | 65.5 ± 16 nM | sub-micromolar range | 420 nM | < 100 nM | > 4 µM | 19 nM | shown activity | 2.4 | > 10 µM
